Source: patent US12221418B2 (EYE HOSPITAL, WENZHOU MEDICAL UNIVERSITY, priority 2021, dated 2025)

Experiments:
[1] = Stability in high humidity environment (moisture absorption weight gain); type: physicochemical; settings: 25° C., RH90%±5%
Protocol: A moisture absorption gain ratio was calculated.

[2] = pH 7.5
[3] = Photo- and thermal stability in the solvent, HPLC
[4] = test system: primary human corneal epithelial cells; assay: Hypertonic inflammatory cell model, RT-PCR of inflammation-related cytokine mRNA; type: cell-based; settings: Ps<0.01
Protocol: Primary human cell culture: the remaining limbus of the donor cornea used in a surgery was treated with an ophthalmic instrument into a tissue block carrying corneal stem cells, the tissue block was pasted at the bottom of a cell culture dish, cultured in an SHEM medium, and placed in a cell culture incubator with a temperature of 37° C., CO2 content of 5% and humidity of 90%; primary human corneal epithelial cells crawling out of the limbal stem cells can be seen after 3-5 days; and the cells were grown to a fused state of 70%-90% for an experiment.
Preparation of solution: (1) preparation of hypertonic liquid (500 mOsm): 90 mmol/L NaCl solution was added to a serum-free medium. (2) Preparation of a tested drug solution: 10 mg of the above prepared product was dissolved in 1 mL of 37° C. DMSO solution, prepared into […] mother liquor, and stored in a −20° C. refrigerator for later use; and the mother liquor was diluted with a serum-free medium to prepare drug solutions having final concentrations of 1 μmol/L and 10 μmol/L for an experiment. […]
(§1) Real-time PCR (RT-PCR): mRNA expressions of different groups of IL-6, IL-1β, IL-17A, IL-18, TNF-α, and NLRP3 were detected using RT-PCR. […] RNA was extracted from the cells according to an instruction of an RNA extraction kit, and a total amount of RNAs required to synthesize a cDNA template was calculated based on a measured concentration. cDNA was synthesized by an M-MLV reverse transcription kit, and the cDNA obtained by reverse transcription was stored at −20° C. for subsequent PCR amplification. […]
(§2) A SYBR Green fluorescent dye method was used for RT-PCR detection. A relatively quantified mRNA expression quantity of a target gene was calculated. […]
Real-time PCR (RT-PCR): mRNA expressions of different groups of IL-6, IL-1β, IL-17A, IL-18, TNF-α, and NLRP3 were detected using RT-PCR. […]

[5] = test system: SV40 corneal epithelial cells; assay: as above; type: cell-based, human; settings: hypertonic model 500 mOsm, four hours of administration, vs. HS group, Ps<0.01
Protocol: SV40 cell culture: SV40 cells were cultured in a DMEM/F12 medium containing 10% fetal bovine serum, and added with insulin and a human epidermal growth factor at the same time, so that a final concentration of insulin in the medium was 5 μg/mL and a final concentration of the human epidermal growth factor was 10 ng/mL. The medium was routinely subcultured in a cell culture incubator with a temperature of 37° C., CO2 content of 5% and a humidity of 90%. The cells were grown to a fused state of 70%-90% for an experiment.
Preparation of solution: (1) preparation of hypertonic liquid (500 mOsm): 90 mmol/L NaCl solution was added to a serum-free medium. […]
as §1, §2

## CC(C)(O)c1ccccc1CC[C@@H](SCC1(CC(=O)O)CC1)c1cccc(/C=C/c2ccc3ccc(Cl)cc3n2)c1 [Montelukast]
[1]
  Weight gain percentage of Day 5 (%): 4.5%
  Weight gain percentage of Day 10 (%): 5.3%

## COc1ccc2cc3[n+](cc2c1OC)CCc1cc2c(cc1-3)OCO2 [Berberine base]
[2]
  Concentration in solvent: 24450 ng/mL
[3]; 0:00
  C: 24.45 µg/mL
  Purity: 97.35%
[3]; 40° C. (in dark place), 8:00
  C: 22.62 µg/mL
  Purity: 97.17%
[3]; 40° C. (in dark place), Day 5
  C: 22.41 µg/mL
  Purity: 97.02%
[3]; 40° C. (in dark place), Day 10
  C: 10.35 µg/mL
  Purity: 96.86%
[3]; 60° C. (in dark place), 8:00
  C: 22.45 µg/mL
  Purity: 97.17%
[3]; 60° C. (in dark place), Day 5
  C: 21.31 µg/mL
  Purity: 96.96%
[3]; 60° C. (in dark place), Day 10
  C: 9.68 µg/mL
  Purity: 95.99%
[3]; Illumination, 8:00
  C: 21.84 µg/mL
  Purity: 97.62%
[3]; Illumination, Day 5
  C: 14.70 µg/mL
  Purity: 88.52%
[3]; Illumination, Day 10
  C: 7.02 µg/mL
  Purity: 74.89%
[1]
  Weight gain percentage of Day 5 (%): 4.2%
  Weight gain percentage of Day 10 (%): 6.7%

## CC(C)(O)c1ccccc1CC[C@@H](SCC1(CC(=O)[O-])CC1)c1cccc(/C=C/c2ccc3ccc(Cl)cc3n2)c1.COc1ccc2cc3[n+](cc2c1OC)CCc1cc2c(cc1-3)OCO2 [Montelukast berberine double salt, (R,E)-2-(1-(((1-(3-(2-(7-chloroquinoline-2-yl)vinyl)phenyl)-3-(2-(2-hydroxypropyl-2-yl)phenyl)propyl)thio)methyl)cyclopropyl)acetic acid and 9,10-dimethoxy-5,6-dihydro-[1,3]dioxocyclo [4,5-g]isoquino[3,2-a]isoquinolin-7-onium conjugate]
[4]; 0.5 μmol/L, compared with single drug of berberine and montelukast of the same concentration
  inflammation-related cytokines (mRNA expression): significantly reduce
[4]; 1 μmol/L, hypertonic model 500 mOsm, four hours of administration, vs. HS group
  inflammation-related cytokines (mRNA expression): significantly reduce
[4]; 10 μmol/L, hypertonic model 500 mOsm, four hours of administration, vs. HS group
  inflammation-related cytokines (mRNA expression): significantly reduce
[5]; 1 μmol/L
  inflammation-related cytokines (mRNA expression): significantly reduce
[5]; 10 μmol/L
  inflammation-related cytokines (mRNA expression): significantly reduce
[1]
  Weight gain percentage of Day 5 (%): 3.3%
  Weight gain percentage of Day 10 (%): 4.9%
